Assay results: patent US20240277698A1, “METHODS OF USING ALDOSTERONE SYNTHASE INHIBITORS” (CINCOR PHARMA, INC., priority 2021, published 2024)
“Also recorded” adds a separate entry of the source. Like-named read-outs stand apart in the source and are kept apart here.

Experiments:
[1] = target: T1, CYP11B1 (Homo sapiens, UniProt P15538); assay: MAD study: plasma cortisol (free and total) and 11-deoxycortisol, with and without Cortrosyn challenge; type: in vivo; conditions: for cortisol (total or free) or 11-deoxycortisol: doses ≤5 mg, including Cortrosyn challenge
T1 construct: endogenous in cells; host or cells: adrenal cortex of healthy human subjects (in vivo, oral dosing)
T1 sequence (P15538 25-503): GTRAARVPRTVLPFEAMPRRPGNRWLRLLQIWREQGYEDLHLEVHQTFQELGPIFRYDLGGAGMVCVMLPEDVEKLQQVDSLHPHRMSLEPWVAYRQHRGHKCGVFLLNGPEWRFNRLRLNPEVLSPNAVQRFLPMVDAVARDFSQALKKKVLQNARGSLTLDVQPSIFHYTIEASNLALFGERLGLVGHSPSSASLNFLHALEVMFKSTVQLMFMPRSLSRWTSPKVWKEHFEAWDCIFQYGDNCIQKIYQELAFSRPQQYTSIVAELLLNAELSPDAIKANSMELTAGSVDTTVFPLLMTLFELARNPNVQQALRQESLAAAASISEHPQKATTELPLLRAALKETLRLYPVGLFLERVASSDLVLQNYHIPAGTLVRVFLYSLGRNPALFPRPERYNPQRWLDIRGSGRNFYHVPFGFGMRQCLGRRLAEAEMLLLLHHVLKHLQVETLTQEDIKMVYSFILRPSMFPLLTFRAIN
Excerpt: (§1) For each subject, the study consisted of: • A screening period of up to 28 days; • A 5-day inpatient run-in period during which subjects adhered to a controlled, standardized diet and underwent baseline PD assessments; • A 15-day inpatient treatment period, during which subjects received (R)-compound 1 or placebo once daily for 10 days while adhering to a controlled, standardized diet, followed by PK and PD sampling over an additional 5 days; and • A follow-up visit 3 days (1 day) after discharge from the clinical unit. • A cortisol stimulation test (Cohorts 1 and 2 only) and standing aldosterone assessment (all cohorts) were performed on Days 1 and 10. Serial blood samples for PK and PD were obtained prior to and at specified time points over 24 hours after dosing on Day 1 as well as prior to and at specified time points over 120 hours after dosing on Day 10. In addition, blood samples for PK were collected prior to dosing on Days 8 and 9. Urine for PK and PD measurements was collected over 24 hours starting just prior to dosing on Day 1 as well as over 120 hours starting just prior to dosing on Day 10.
These findings are consistent in the presence of Cortrosyn challenge (which occurred with the low salt treatment groups) and in the absence of the challenge (normal salt groups) (Table 13).

[2] = MAD study: urine pharmacokinetics; type: in vivo, human; design: CL renal: unit not given here; conditions: for Ae, D 1 (amount excreted in urine, Day 1) / Ae, D 10 (amount excreted in urine, Day 10) / Fe, D 1 (fraction of dose excreted renally, Day 1) / Fe, D 10 (fraction of dose excreted renally, Day 10) / CL renal: mean; for CL renal: human, urine, oral
Excerpt: as §1

[3] = Day 1, 0.5 mg, normal salt diet
[4] = Day 1, 1.5 mg, normal salt diet
[5] = Day 1, 2.5 mg, low salt diet (Cortrosyn challenge)
[6] = Day 1, 2.5 mg, normal salt diet
[7] = Day 1, 5.0 mg, low salt diet (Cortrosyn challenge)
[8] = Day 10, 0.5 mg, normal salt diet
[9] = Day 10, 1.5 mg, normal salt diet
[10] = Day 10, 2.5 mg, low salt diet (Cortrosyn challenge)
[11] = Day 10, 2.5 mg, normal salt diet
[12] = Day 10, 5.0 mg, low salt diet (Cortrosyn challenge)

SMILES: CCC(=O)N[C@@H]1CCCc2c(-c3ccc4c(c3)CCC(=O)N4C)cncc21 [(R)-Compound 1, (R)—N-(4-(1-methyl-2-oxo-1,2,3,4-tetrahydroquinolin-6-yl)-5,6,7,8-tetrahydroisoquinolin-8-yl)propionamide]
- Plasma total cortisol, percent change from Day −1 to Day 10, predose, mean ([1]; 0.5 mg, normal salt diet): −2.83%
- Plasma total cortisol, percent change from Day −1 to Day 10, predose, mean ([1]; 1.5 mg, normal salt diet): 19.44%
- Plasma total cortisol, percent change from Day −1 to Day 10, predose, mean ([1]; 2.5 mg, low salt diet): 5.29%
- Plasma total cortisol, percent change from Day −1 to Day 10, predose, mean ([1]; 2.5 mg, normal salt diet): −0.09%
- Plasma total cortisol, percent change from Day −1 to Day 10, predose, mean ([1]; 5.0 mg, low salt diet): 58.40%
- Plasma total cortisol, mean ([1]; Day 1, 12 hours postdose, 0.5 mg, normal salt diet): 28.14 ng/mL
- Plasma total cortisol, mean ([1]; Day 1, 12 hours postdose, 1.5 mg, normal salt diet): 25.32 ng/mL
- Plasma total cortisol, mean ([1]; Day 1, 12 hours postdose, 2.5 mg, low salt diet): 21.90 ng/mL
- Plasma total cortisol, mean ([1]; Day 1, 12 hours postdose, 2.5 mg, normal salt diet): 30.10 ng/mL
- Plasma total cortisol, mean ([1]; Day 1, 12 hours postdose, 5.0 mg, low salt diet): 19.43 ng/mL
- Plasma total cortisol, mean ([1]; Day 1, predose, 0.5 mg, normal salt diet): 84.15 ng/mL
- Plasma total cortisol, mean ([1]; Day 1, predose, 1.5 mg, normal salt diet): 97.61 ng/mL
- Plasma total cortisol, mean ([1]; Day 1, predose, 2.5 mg, low salt diet): 71.75 ng/mL
- Plasma total cortisol, mean ([1]; Day 1, predose, 2.5 mg, normal salt diet): 106.85 ng/mL
- Plasma total cortisol, mean ([1]; Day 1, predose, 5.0 mg, low salt diet): 68.24 ng/mL
- Plasma 11-deoxycortisol AUC0-12 estimated percent change from baseline, LS Mean [1, 3]: −0.57%
- Plasma cortisol AUC0-12 estimated percent change from baseline, LS Mean [1, 3]: −4.43%
- Plasma 11-deoxycortisol AUC0-12 estimated percent change from baseline, LS Mean [1, 4]: 2.39%
- Plasma cortisol AUC0-12 estimated percent change from baseline, LS Mean [1, 4]: 0.62%
- Plasma 11-deoxycortisol AUC0-12 estimated percent change from baseline, LS Mean [1, 5]: 21.63%
- Plasma cortisol AUC0-12 estimated percent change from baseline, LS Mean [1, 5]: −3.91%
- Plasma 11-deoxycortisol AUC0-12 estimated percent change from baseline, LS Mean [1, 6]: 12.73%
- Plasma cortisol AUC0-12 estimated percent change from baseline, LS Mean [1, 6]: −0.52%
- Plasma 11-deoxycortisol AUC0-12 estimated percent change from baseline, LS Mean [1, 7]: 36.67%
- Plasma cortisol AUC0-12 estimated percent change from baseline, LS Mean [1, 7]: 4.04%
- Plasma total cortisol, mean ([1]; Day 2, predose, 0.5 mg, normal salt diet): 88.33 ng/mL
- Plasma total cortisol, mean ([1]; Day 2, predose, 1.5 mg, normal salt diet): 95.12 ng/mL
- Plasma total cortisol, mean ([1]; Day 2, predose, 2.5 mg, normal salt diet): 109.23 ng/mL
- Plasma total cortisol, mean ([1]; Day 10, 12 hours postdose, 0.5 mg, normal salt diet): 22.36 ng/mL
- Plasma total cortisol, mean ([1]; Day 10, 12 hours postdose, 1.5 mg, normal salt diet): 41.31 ng/mL
- Plasma total cortisol, mean ([1]; Day 10, 12 hours postdose, 2.5 mg, low salt diet): 22.93 ng/mL
- Plasma total cortisol, mean ([1]; Day 10, 12 hours postdose, 2.5 mg, normal salt diet): 31.86 ng/mL
- Plasma total cortisol, mean ([1]; Day 10, 12 hours postdose, 5.0 mg, low salt diet): 31.90 ng/mL
- Plasma total cortisol, mean ([1]; Day 10, 24 hours postdose, 0.5 mg, normal salt diet): 95.76 ng/mL
- Plasma total cortisol, mean ([1]; Day 10, 24 hours postdose, 1.5 mg, normal salt diet): 90.27 ng/mL
- Plasma total cortisol, mean ([1]; Day 10, 24 hours postdose, 2.5 mg, low salt diet): 94.36 ng/mL
- Plasma total cortisol, mean ([1]; Day 10, 24 hours postdose, 2.5 mg, normal salt diet): 126.20 ng/mL
- Plasma total cortisol, mean ([1]; Day 10, 24 hours postdose, 5.0 mg, low salt diet): 121.40 ng/mL
- Plasma total cortisol, mean ([1]; Day 10, predose, 0.5 mg, normal salt diet): 81.90 ng/mL
- Plasma total cortisol, mean ([1]; Day 10, predose, 1.5 mg, normal salt diet): 96.54 ng/mL
- Plasma total cortisol, mean ([1]; Day 10, predose, 2.5 mg, low salt diet): 91.85 ng/mL
- Plasma total cortisol, mean ([1]; Day 10, predose, 2.5 mg, normal salt diet): 106.52 ng/mL
- Plasma total cortisol, mean ([1]; Day 10, predose, 5.0 mg, low salt diet): 112.67 ng/mL
- Plasma 11-deoxycortisol AUC0-12 estimated percent change from baseline, LS Mean [1, 8]: −6.77%
- Plasma cortisol AUC0-12 estimated percent change from baseline, LS Mean [1, 8]: −19.53%
- Plasma 11-deoxycortisol AUC0-12 estimated percent change from baseline, LS Mean [1, 9]: 1.82%
- Plasma cortisol AUC0-12 estimated percent change from baseline, LS Mean [1, 9]: −4.45%
- Plasma 11-deoxycortisol AUC0-12 estimated percent change from baseline, LS Mean [1, 10]: −25.69%
- Plasma cortisol AUC0-12 estimated percent change from baseline, LS Mean [1, 10]: −38.02%
- Plasma 11-deoxycortisol AUC0-12 estimated percent change from baseline, LS Mean [1, 11]: −2.72%
- Plasma cortisol AUC0-12 estimated percent change from baseline, LS Mean [1, 11]: −9.23%
- Plasma 11-deoxycortisol AUC0-12 estimated percent change from baseline, LS Mean [1, 12]: 18.84%
- Plasma cortisol AUC0-12 estimated percent change from baseline, LS Mean [1, 12]: −37.25%
- Plasma total cortisol, mean ([1]; Day −1 predose, 0.5 mg, normal salt diet): 86.74 ng/mL
- Plasma total cortisol, mean ([1]; Day −1 predose, 1.5 mg, normal salt diet): 90.79 ng/mL
- Plasma total cortisol, mean ([1]; Day −1 predose, 2.5 mg, low salt diet): 90.39 ng/mL
- Plasma total cortisol, mean ([1]; Day −1 predose, 2.5 mg, normal salt diet): 107.50 ng/mL
- Plasma total cortisol, mean ([1]; Day −1 predose, 5.0 mg, low salt diet): 83.17 ng/mL
- cortisol (total or free) or 11-deoxycortisol [1]: remained unaffected
- cortisol (total or free) or 11-deoxycortisol ([1]; listed as (R)-compound 1): no apparent effects; also recorded: no apparent differences
- Ae, D 1 (amount excreted in urine, Day 1) ([2]; 0.5 mg QD, normal salt diet): 39952.889 ng
- Ae, D 10 (amount excreted in urine, Day 10) ([2]; 0.5 mg QD, normal salt diet): 168181.917 ng
- Fe, D 1 (fraction of dose excreted renally, Day 1) ([2]; 0.5 mg QD, normal salt diet): 7.991%
- Fe, D 10 (fraction of dose excreted renally, Day 10) ([2]; 0.5 mg QD, normal salt diet): 33.636%
- Ae, D 1 (amount excreted in urine, Day 1) ([2]; 1.5 mg QD, normal salt diet): 115762.122 ng
- Ae, D 10 (amount excreted in urine, Day 10) ([2]; 1.5 mg QD, normal salt diet): 459968.526 ng
- Fe, D 1 (fraction of dose excreted renally, Day 1) ([2]; 1.5 mg QD, normal salt diet): 7.717%
- Fe, D 10 (fraction of dose excreted renally, Day 10) ([2]; 1.5 mg QD, normal salt diet): 30.665%
- Ae, D 1 (amount excreted in urine, Day 1) ([2]; 2.5 mg QD, low salt diet): 1687233.672 ng
- Ae, D 10 (amount excreted in urine, Day 10) ([2]; 2.5 mg QD, low salt diet): 766791.190 ng
- Fe, D 1 (fraction of dose excreted renally, Day 1) ([2]; 2.5 mg QD, low salt diet): 6.749%
- Fe, D 10 (fraction of dose excreted renally, Day 10) ([2]; 2.5 mg QD, low salt diet): 30.672%
- Ae, D 1 (amount excreted in urine, Day 1) ([2]; 2.5 mg QD, normal salt diet): 270541.533 ng
- Ae, D 10 (amount excreted in urine, Day 10) ([2]; 2.5 mg QD, normal salt diet): 826482.355 ng
- Fe, D 1 (fraction of dose excreted renally, Day 1) ([2]; 2.5 mg QD, normal salt diet): 10.822%
- Fe, D 10 (fraction of dose excreted renally, Day 10) ([2]; 2.5 mg QD, normal salt diet): 33.059%
- Ae, D 1 (amount excreted in urine, Day 1) ([2]; 5.0 mg QD, low salt diet): 317339.306 ng
- Ae, D 10 (amount excreted in urine, Day 10) ([2]; 5.0 mg QD, low salt diet): 1677304.469 ng
- Fe, D 1 (fraction of dose excreted renally, Day 1) ([2]; 5.0 mg QD, low salt diet): 6.347%
- Fe, D 10 (fraction of dose excreted renally, Day 10) ([2]; 5.0 mg QD, low salt diet): 33.546%
- dose recovered unchanged in the urine, average ([2]; MAD study): approximately 7%
- CL renal ([2]; 0.5 mg, 0.5 mg QD, normal salt diet, read-out: CLR, D 1 (renal clearance, Day 1) (converted)): 0.00888
- CL renal ([2]; 0.5 mg, 0.5 mg QD, normal salt diet, read-out: CLR, D 10 (renal clearance, Day 10) (converted)): 0.00822
- CL renal ([2]; 1.5 mg, 1.5 mg QD, normal salt diet, read-out: CLR, D 1 (renal clearance, Day 1) (converted)): 0.00958
- CL renal ([2]; 1.5 mg, 1.5 mg QD, normal salt diet, read-out: CLR, D 10 (renal clearance, Day 10) (converted)): 0.00733
- CL renal ([2]; 2.5 mg, 2.5 mg QD, low salt diet, read-out: CLR, D 1 (renal clearance, Day 1) (converted)): 0.00797
- CL renal ([2]; 2.5 mg, 2.5 mg QD, low salt diet, read-out: CLR, D 10 (renal clearance, Day 10) (converted)): 0.0085
- CL renal ([2]; 2.5 mg, 2.5 mg QD, normal salt diet, read-out: CLR, D 1 (renal clearance, Day 1) (converted)): 0.0136
- CL renal ([2]; 2.5 mg, 2.5 mg QD, normal salt diet, read-out: CLR, D 10 (renal clearance, Day 10) (converted)): 0.0111
- CL renal ([2]; 5 mg, 5.0 mg QD, low salt diet, read-out: CLR, D 1 (renal clearance, Day 1) (converted)): 0.00815
- CL renal ([2]; 5 mg, 5.0 mg QD, low salt diet, read-out: CLR, D 10 (renal clearance, Day 10) (converted)): 0.00822
